Patent publication US20250082656A1, “DOSAGE REGIMENS FOR TREATMENT OF DENGUE INFECTION” (Atea Pharmaceuticals, Inc., priority 2022, published 2025)
Like-named read-outs stand apart in the source and are kept apart here.

Key:
[1] = Cytotoxicity in Vero cells; assay type: cell-based; conditions: African green monkey, Table 2, Vero, parallel to the virus of the line
Procedure: (§1) To assess the antiviral specificity of Compound 1 (AT-281), serial dilutions were incubated with various host cell lines infected with a panel of DNA and RNA viruses other than flaviviruses. The activity of Compound 1 (AT-281) was measured in infected cells using the neutral red assay to determine the effective concentration required to inhibit viral replication 50% (EC50) (described in Example 3) and the threshold concentration required to obtain a perceptible effect on 50% of the cells incubated without virus (CC50). Compound 1 (AT-281) had no activity against the DNA viruses tested and was only weakly or not active against several RNA viruses (Table 2).

Rhinovirus = assay: Antiviral specificity panel, Rhinovirus; assay type: cell-based; conditions: Enterovirus; RNA virus, H1-HeLa
[2] = Pharmacokinetic study in SAD cohorts; assay type: in vivo, human; conditions: for CL renal / AUC(0-inf) / half-life / Cmax / Tmax: both sexes, human, po; for CL renal: plasma and urine; for AUC(0-inf) / half-life / Cmax / Tmax: plasma, human plasma; for Cmax: read-out: Cmax; for Tmax: read-out: Tmax
HCV = assay: Antiviral specificity panel, HCV; assay type: cell-based, hepatitis C virus
[3] = Bone marrow progenitor cell assay, granulocyte macrophage (GM); conditions: human
[4] = Cytotoxicity in uninfected Huh-7 cells; conditions: human, Huh-7 cells, uninfected
Huh-7 cells = assay: Cytotoxicity in uninfected Huh-7 cells; conditions: Table 1A, Huh-7 incubated without virus, parallel to the virus of the line; highest concentration tested
Chikungunya = assay: Antiviral specificity panel, Chikungunya; assay type: cell-based; conditions: Chikungunya virus; RNA virus, Huh-7
flaviviruses = assay: organism not typed; conditions: 144 h, read-out: concentration to achieve 50% inhibition (EC50) of the virus-induced cytopathic effect (CPE), range over 11 strains of 7 flaviviruses in 3 cell types, 3- to 6-day incubation
[5] = Cytotoxicity in CEM-SS cells; assay type: cell-based; conditions: human, Table 2, CEM-SS
Procedure: as §1

DENV-2 = assay: CPE (MTT) assay, DENV-2 in human PBMCs and BHK-21 cells; assay type: cell-based, Dengue virus
[6] = Cytotoxicity in H1-HeLa cells; assay type: cell-based; conditions: human, Table 2, H1-HeLa
Procedure: as §1

[7] = 250 mg, single oral Compound 2 250 mg, fasting
[8] = 500 mg, single oral Compound 2 500 mg, fasting
[9] = 500 mg, single oral Compound 2 500 mg, fed
[10] = 1000 mg, single oral Compound 2 1000 mg, South/Southeast/East Asian origin
[11] = 1000 mg, single oral Compound 2 1000 mg, fasting
[12] = 1500 mg, single oral Compound 2 1500 mg, fasting

CNc1nc(N)nc2c1ncn2[C@@H]1O[C@H](CO[P@](=O)(N[C@@H](C)C(=O)OC(C)C)Oc2ccccc2)[C@@H](O)[C@@]1(C)F [Compound 1, isopropyl ((R)-(((2R,3R,4R,5R)-5-(2-amino-6-(methylamino)-9H-purin-9-yl)-4-fluoro-3-hydroxy-4-methyltetrahydrofuran-2-yl)methoxy)(phenoxy)phosphoryl)-L-alaninate]
CC50 [1]: > 100 µM | EC50 (Rhinovirus): > 100 µM | CL renal [2, 7]: 125 mL/min | CL renal [2, 8]: 182 mL/min | CL renal [2, 9]: 110 mL/min | CL renal [2, 10]: 162 mL/min | CL renal [2, 11]: 190 mL/min | CL renal [2, 12]: 138 mL/min | AUC(0-inf) [2, 7]: 347 ± 64 ng·h/mL | half-life [2, 7]: 30 ± 6 min | Cmax [2, 7]: 482 ± 131 ng/mL | Tmax [2, 7]: 30 min | AUC(0-inf) [2, 8]: 1110 ± 687 ng·h/mL | half-life [2, 8]: 30 ± 60 min | Cmax [2, 8]: 1230 ± 1110 ng/mL | Tmax [2, 8]: 30 min | AUC(0-inf) [2, 9]: 980 ± 716 ng·h/mL | half-life [2, 9]: 42 ± 18 min | Cmax ([2]; 500 mg, single oral Compound 2 500 mg, fed (high-fat/high-calorie meal)): 488 ± 303 ng/mL | Tmax [2, 9]: 120 min | AUC(0-inf) [2, 10]: 2730 ± 944 ng·h/mL | half-life [2, 10]: 30 ± 6 min | Tmax [2, 10]: 30 min | AUC(0-inf) [2, 11]: 1920 ± 508 ng·h/mL | half-life [2, 11]: 30 ± 6 min | Cmax [2, 11]: 3040 ± 960 ng/mL | Tmax [2, 11]: 30 min | Cmax ([2]; 1000 mg, single oral Compound 2 1000 mg, patients of South/Southeast/East Asian origin): 3670 ± 1260 ng/mL | AUC(0-inf) [2, 12]: 4630 ± 1500 ng·h/mL | half-life [2, 12]: 36 ± 12 min | Cmax [2, 12]: 5050 ± 2080 ng/mL | Tmax [2, 12]: 30 min | dose proportionality of plasma exposure ([2]; dose range 250 to 1500 mg): greater than dose-proportional manner | Urine Elimination ([2]; following single oral administration of Compound 2 at 250 to 1500 mg): < 3% | selectivity towards HCV (HCV; CC50/EC50): > 2,000 | EC50 (HCV; Hepatitis C virus, RNA virus, Huh-7): 0.05 µM | CC50 at 14 days [3]: > 100 µM | CC50 [4]: > 100 µM | CC50 (Huh-7 cells): > 170 µM | EC50 (Chikungunya): 54.2 µM | EC50 (flaviviruses): 0.19 to 1.41 µM | CC50 [5]: > 100 µM | EC50 (DENV-2; DENV-2 clinical isolate, BHK-21, CPE): 1.05 µM | EC50 (DENV-2; Dengue virus, DENV2, BHK-21, DENV-2 NGC, BHK-21, CPE read-out): 3.82 µM | CC50 [6]: > 100 µM
